Experiment [1] addresses T1, Bcl-2-related protein A1 (Mus musculus, UniProt Q07440).
T1 sequence (Q07440 whole entry): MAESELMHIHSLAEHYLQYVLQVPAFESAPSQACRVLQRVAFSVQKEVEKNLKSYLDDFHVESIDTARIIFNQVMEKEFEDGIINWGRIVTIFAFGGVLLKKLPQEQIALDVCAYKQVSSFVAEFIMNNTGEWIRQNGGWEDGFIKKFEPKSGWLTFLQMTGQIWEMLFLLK
In words: displacement of Bid BH3 peptide from Bfl-1 – biochemical, fluorescence polarization, FITC-Bid, mouse, primary screen (AID 432). A general note: Fluorescence polarisation rises when a labelled molecule tumbles more slowly, as on binding a larger partner.

Experiment [2] deals with Glyceraldehyde-3-phosphate dehydrogenase (Homo sapiens, UniProt P04406).
Sequence of Glyceraldehyde-3-phosphate dehydrogenase (P04406 whole entry): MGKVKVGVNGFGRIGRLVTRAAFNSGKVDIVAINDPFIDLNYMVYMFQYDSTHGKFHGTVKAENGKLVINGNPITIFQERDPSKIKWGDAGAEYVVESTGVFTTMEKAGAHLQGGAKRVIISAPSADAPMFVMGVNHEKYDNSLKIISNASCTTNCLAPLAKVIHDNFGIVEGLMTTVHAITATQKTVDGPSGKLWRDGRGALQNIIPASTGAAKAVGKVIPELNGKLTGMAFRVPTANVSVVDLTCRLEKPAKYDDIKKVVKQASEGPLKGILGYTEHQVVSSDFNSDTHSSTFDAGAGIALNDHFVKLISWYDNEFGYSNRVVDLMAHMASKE
For experiment [3], the target named is T1, Bcl-2-related protein A1. Kind of experiment: small-molecule antagonists of Bfl-1/BH3 interaction – biochemical, TR-FRET, mouse Bfl-1, confirmation (AID 621).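 Further: TR-FRET binding of GST-Bfl-1 to FITC-labelled Bid peptide via terbium antibody.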 For orientation: Time-resolved FRET reads energy transfer from a long-lived donor to a nearby acceptor.
Experiment [4] deals with T1, Bcl-2-related protein A1. Kind of experiment: Bfl-1 binding inhibitors, SAR follow-up, biochemical, fluorescence polarization (AID 1070).
A short description of experiment [5]: Luminescence Cell-Based Dose Retest to Confirm Inhibitors of Cancer Stem Cells. [Related pubchem assays (depositor defined):AID2717, AID2721]. The class given is functional. The conditions noted are these: Homo sapiens.
The next experiment deals with CHO. Kind of experiment: CHO cell viability loss, potency – luminescence, cytotoxicity control for TLR9-MyD88 binding inhibitor project, dose response (AID 588339).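 Further: CHO cells stably coexpressing TLR9 and MyD88 fusions from primary screen; compound exposure lasted 48 hours before viability readout.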 Format: functional, cell-based, hamster. The conditions noted are these: Cricetulus griseus.
Experiment [6] deals with T2, Replicative DNA helicase DnaB (Mycobacterium tuberculosis, UniProt P9WMR3).
T2 sequence (P9WMR3 whole entry): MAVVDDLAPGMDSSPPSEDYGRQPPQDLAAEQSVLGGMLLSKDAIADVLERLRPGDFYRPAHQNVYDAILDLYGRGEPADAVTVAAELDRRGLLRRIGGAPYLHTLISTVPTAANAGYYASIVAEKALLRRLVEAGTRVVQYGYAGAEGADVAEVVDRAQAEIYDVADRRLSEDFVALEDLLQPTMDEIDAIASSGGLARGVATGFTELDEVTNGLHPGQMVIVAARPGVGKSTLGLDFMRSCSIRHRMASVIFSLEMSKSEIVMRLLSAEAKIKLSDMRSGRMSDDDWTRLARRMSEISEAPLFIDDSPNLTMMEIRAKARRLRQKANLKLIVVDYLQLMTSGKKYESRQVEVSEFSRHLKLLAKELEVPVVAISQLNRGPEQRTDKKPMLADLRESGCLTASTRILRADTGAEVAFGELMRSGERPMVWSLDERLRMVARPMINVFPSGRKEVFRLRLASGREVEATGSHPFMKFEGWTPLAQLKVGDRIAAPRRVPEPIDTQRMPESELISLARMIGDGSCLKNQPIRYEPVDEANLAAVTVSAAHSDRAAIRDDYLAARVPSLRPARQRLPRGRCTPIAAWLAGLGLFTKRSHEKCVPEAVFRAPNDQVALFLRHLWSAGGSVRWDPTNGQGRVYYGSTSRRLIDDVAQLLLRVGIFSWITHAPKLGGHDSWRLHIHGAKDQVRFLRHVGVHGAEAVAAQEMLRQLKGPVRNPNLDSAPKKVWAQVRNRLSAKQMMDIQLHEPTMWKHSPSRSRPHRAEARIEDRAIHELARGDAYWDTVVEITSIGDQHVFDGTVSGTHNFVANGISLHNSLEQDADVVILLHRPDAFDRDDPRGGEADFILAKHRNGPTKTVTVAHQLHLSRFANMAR
Kind of experiment: DnaB intein splicing inhibitors, dose response, biochemical, cell-free fluorescence (AID 449749). The class given is functional.

The target in another experiment is T3, Protein RecA (Mycobacterium tuberculosis, UniProt P9WHJ3).
T3 sequence (P9WHJ3 whole entry): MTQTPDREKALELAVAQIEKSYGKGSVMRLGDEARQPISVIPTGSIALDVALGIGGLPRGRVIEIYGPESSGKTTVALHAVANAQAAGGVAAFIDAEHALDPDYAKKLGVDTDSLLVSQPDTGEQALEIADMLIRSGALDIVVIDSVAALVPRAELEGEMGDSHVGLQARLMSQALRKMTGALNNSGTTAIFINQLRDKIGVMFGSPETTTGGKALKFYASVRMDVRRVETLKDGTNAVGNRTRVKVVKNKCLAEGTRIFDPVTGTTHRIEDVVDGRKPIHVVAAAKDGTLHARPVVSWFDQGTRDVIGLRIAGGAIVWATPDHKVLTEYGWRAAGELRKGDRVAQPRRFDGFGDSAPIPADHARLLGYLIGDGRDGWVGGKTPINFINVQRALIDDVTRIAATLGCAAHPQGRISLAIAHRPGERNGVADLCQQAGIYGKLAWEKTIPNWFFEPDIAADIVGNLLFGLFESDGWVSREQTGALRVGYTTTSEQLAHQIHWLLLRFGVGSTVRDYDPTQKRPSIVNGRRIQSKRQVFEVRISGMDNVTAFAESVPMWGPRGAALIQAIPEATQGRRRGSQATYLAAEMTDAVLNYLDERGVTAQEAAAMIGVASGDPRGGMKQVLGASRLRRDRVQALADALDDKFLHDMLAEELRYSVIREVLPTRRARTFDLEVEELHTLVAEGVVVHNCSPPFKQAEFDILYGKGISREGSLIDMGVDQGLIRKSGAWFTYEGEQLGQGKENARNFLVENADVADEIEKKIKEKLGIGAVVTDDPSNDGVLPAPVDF
Kind of experiment: Fluorescence Cell-Free Homogeneous Dose Retest to Identify Inhibitors of RecA-Intein Splicing Activity. [Related pubchem assays (depositor defined):AID2097, AID2223, AID489010, AID492950]. Format: functional.

The target of the next experiment is Beta Lactamase (Pseudomonas aeruginosa, UniProt Q932Y6). In words: BLA reporter interference, concentration series – BLA reporter cells, FRET fluorescence, artefact control for TLR9-MyD88 binding inhibitor project, dose response (AID 588341).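 Further: cell based assay in CHO-K1 cells stably expressing beta-lactamase.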 The class given is cell-based.
Sequence of Beta Lactamase (Q932Y6 whole entry): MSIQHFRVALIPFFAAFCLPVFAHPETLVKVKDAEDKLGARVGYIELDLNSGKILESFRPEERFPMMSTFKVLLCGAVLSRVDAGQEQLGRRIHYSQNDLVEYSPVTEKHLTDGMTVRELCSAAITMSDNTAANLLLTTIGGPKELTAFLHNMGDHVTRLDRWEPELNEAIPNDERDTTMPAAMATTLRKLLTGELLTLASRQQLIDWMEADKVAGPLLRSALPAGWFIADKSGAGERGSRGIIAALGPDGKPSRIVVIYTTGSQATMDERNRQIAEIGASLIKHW
Another experiment relates to INS1. Kind of experiment: INS-1E survival protection against cytokine death – cell-based, luminescence, retest, dose response (AID 449756).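 Further: cell death triggered by IL-1 beta plus TNF-alpha plus IFN-gamma mixture; protective hits raise ATP signal compared with cytokine alone wells.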 Format: functional. Conditions: Rattus norvegicus.
A short description of experiment [7]: reduction of Shn3 3'UTR-driven luciferase in osteoblasts – cell-based, Clone20 osteoblasts, firefly luciferase, cherry-picked, dose response (AID 624132).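 Further: firefly luciferase luminescence from reporter carrying the Shn3 3'UTR in osteoblasts.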 The class given is functional.
A short description of experiment [8]: loss of viability in HepG2 cells – cell-based, CellTiter-Glo, cherry-picked, cytotoxicity control for Shn3 inhibitor project, dose response (AID 624134). The class given is functional. For orientation: In ATP-based viability assays light output follows the ATP content of the culture.
The nature of experiment [9]: non-specific 3'UTR reporter inhibition in Clone20-Shn3RL – cell-based, Renilla luciferase, cherry-picked, counter-screen for Shn3 inhibitor project, dose response (AID 624133). The class given is functional.
The nature of experiment [10]: reduced cellular PGC1a acetyl-lysine signal – cell-based, cherry-picked samples, dose response (AID 720514).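 Further: potency may reflect raised or lowered acetylation signal.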 Format: functional.
In experiment [11] the target is Solute carrier family 12 member 2/member 5 (Homo sapiens, UniProt P55011+Q9H2X9). In words: KCC2 and NKCC1 inhibition by rubidium flux, cell-based, NKCC1 counter-screen (AID 1734). The class given is functional, HEK293.
For experiment [12], the target named is T4, Sphingosine 1-phosphate receptor 2 (Homo sapiens, UniProt O95136). In words: Dose Response Cell Based Assay for Agonists of the S1P2 Receptor. [Related pubchem assays: 729, 736, 843 ]. The class given is functional.
T4 sequence (O95136 whole entry): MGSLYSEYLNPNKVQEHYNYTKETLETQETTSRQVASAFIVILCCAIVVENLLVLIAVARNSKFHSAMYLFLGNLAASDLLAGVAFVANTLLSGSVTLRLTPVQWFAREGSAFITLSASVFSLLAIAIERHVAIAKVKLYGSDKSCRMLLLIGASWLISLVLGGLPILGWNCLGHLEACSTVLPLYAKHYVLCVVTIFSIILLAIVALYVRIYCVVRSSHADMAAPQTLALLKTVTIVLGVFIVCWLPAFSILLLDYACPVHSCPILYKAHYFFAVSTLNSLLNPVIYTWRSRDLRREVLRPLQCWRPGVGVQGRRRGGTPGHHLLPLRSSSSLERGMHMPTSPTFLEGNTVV
The nature of experiment [13]: M. tuberculosis growth inhibition, HTS (AID 449762). Format: functional.
A short description of experiment [14]: microbe, parasite or virus in culture. The class given is functional. Conditions: Mycobacterium tuberculosis.
The target in experiment [15] is T5, NADPH oxidase 1 (Homo sapiens, UniProt Q9Y5S8). In words: Late stage results from the probe development effort to identify inhibitors of NOX1: HEK/293 IC50. [Related pubchem assays: 1796 (Summary AID (NOX1)), 2752 (Primary screen (NOX1 inhibitors, synthesized analogs set 2)), 2664 (Primary screen (NOX1 inhibitors, synthesized analogs)), 1792 (Primary Screen (NOX1)), 2545 (Confirmation screen (NOX1 …. The class given is functional.
T5 sequence (Q9Y5S8 whole entry): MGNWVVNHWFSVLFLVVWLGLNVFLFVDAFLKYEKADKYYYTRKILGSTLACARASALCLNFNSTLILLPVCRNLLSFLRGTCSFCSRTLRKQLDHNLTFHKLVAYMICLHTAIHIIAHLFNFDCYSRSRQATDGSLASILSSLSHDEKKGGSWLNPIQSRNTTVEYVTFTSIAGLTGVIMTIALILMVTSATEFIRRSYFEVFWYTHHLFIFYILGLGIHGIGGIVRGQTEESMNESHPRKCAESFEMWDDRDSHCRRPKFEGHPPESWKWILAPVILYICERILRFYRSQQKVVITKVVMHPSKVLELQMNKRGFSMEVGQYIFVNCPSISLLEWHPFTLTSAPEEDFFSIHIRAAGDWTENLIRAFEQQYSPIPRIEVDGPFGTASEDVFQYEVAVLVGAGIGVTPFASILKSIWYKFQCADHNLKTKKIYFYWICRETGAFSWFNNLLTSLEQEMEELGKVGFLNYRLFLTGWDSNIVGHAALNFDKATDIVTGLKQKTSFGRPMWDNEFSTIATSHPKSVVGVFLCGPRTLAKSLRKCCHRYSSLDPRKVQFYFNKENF

The target of experiment [16] is T5, NADPH oxidase 1. In words: potency of NOX1 inhibition in cells – cell-based, luminescence, cherry picks 2, dose response (AID 434997). Format: functional.
The nature of experiment [17]: Luminescent dose response cell-based high throughput screening assay for inhibitors of the Janus kinase 2 mutant JAK2V617F. [Related pubchem assays: 1446 (Primary screen.), 1521 (Confirmation assay.), 1486 (Counter screen.)]. The class given is functional.
The target of experiment [18] is E3 ubiquitin-protein ligase Mdm2 (Homo sapiens, UniProt Q00987). Kind of experiment: MDM2-luc reporter signal enhancers, multi-concentration potency testing, MDM2 ubiquitin-protein ligase inhibitor program, whole-cell format, luminescence detection, 384-well microplate (AID 1394).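 Further: MDM2 E3 inhibitors raise luminescence so EC50 is for signal enhancement.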 The class given is functional.
Sequence of E3 ubiquitin-protein ligase Mdm2 (Q00987 whole entry): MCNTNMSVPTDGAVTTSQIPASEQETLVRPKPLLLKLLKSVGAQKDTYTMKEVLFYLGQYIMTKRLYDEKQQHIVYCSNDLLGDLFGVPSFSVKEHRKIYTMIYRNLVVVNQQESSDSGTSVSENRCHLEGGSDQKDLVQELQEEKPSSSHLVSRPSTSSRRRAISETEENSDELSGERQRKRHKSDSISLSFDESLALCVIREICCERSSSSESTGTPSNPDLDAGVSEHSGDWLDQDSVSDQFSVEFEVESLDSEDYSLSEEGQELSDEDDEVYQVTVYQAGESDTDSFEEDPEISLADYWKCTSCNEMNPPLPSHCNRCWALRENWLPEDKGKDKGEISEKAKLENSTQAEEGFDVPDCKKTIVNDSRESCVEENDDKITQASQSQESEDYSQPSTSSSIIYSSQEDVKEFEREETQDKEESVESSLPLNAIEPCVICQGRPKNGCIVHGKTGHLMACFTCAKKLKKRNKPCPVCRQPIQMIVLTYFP
Experiment [19] deals with Bifunctional protein GlmU (Mycobacterium tuberculosis, UniProt P9WMN3). In words: Inhibitors of Mycobacterial Glucosamine-1-phosphate acetyl transferase (GlmU). Secondary screen. The arrangement: species or system Mycobacterium tuberculosis H37Rv.
Sequence of Bifunctional protein GlmU (P9WMN3 whole entry): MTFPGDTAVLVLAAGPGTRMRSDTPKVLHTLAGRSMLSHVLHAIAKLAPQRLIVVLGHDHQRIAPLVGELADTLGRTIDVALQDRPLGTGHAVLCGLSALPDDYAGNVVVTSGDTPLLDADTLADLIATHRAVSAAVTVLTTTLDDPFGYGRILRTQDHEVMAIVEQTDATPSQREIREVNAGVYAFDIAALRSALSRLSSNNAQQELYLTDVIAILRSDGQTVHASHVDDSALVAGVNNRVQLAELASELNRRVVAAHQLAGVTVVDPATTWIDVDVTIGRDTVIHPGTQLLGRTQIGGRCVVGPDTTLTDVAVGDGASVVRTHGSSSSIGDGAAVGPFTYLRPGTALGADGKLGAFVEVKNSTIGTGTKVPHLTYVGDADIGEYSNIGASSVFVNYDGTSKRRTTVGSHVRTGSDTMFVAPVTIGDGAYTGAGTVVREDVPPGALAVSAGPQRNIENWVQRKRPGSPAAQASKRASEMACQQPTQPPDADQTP
For experiment [20], the target named is Heat shock protein HSP 90-alpha (Homo sapiens, UniProt P07900). The class given is functional, organism-based.
The nature of experiment [21]: IC50 of insulin release inhibition, rat insulinoma INS-1E line, 5 mM glucose, cell-based (AID 1117331). Format: functional.
The nature of experiment [22]: Potency on glucagon-like peptide 1 release, dose-response in NCI-H716 cell line, half maximal inhibitory concentration (AID 1117344). Format: functional, cell-based.
Experiment [23] concerns the target Peroxisome proliferator-activated receptor gamma/Nuclear receptor coactivator 2 (Homo sapiens, UniProt P37231). Format: functional.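 Further: agonist potency for raising coactivator recruitment to the receptor.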
In experiment [24] the target is Peroxisome proliferator-activated receptor gamma/Nuclear receptor coactivator 1 (Homo sapiens, UniProt P37231). The class given is functional.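 Further: agonist potency as compounds enhance coactivator SRC-1 recruitment to PPARgamma.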
The target of experiment [25] is Peroxisome proliferator-activated receptor gamma/Nuclear receptor coactivator 3 (Homo sapiens, UniProt P37231). The class given is functional.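 Further: agonist potency for raising coactivator recruitment to the receptor.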
Sequence of Peroxisome proliferator-activated receptor gamma/Nuclear receptor coactivator 3 (P37231 whole entry): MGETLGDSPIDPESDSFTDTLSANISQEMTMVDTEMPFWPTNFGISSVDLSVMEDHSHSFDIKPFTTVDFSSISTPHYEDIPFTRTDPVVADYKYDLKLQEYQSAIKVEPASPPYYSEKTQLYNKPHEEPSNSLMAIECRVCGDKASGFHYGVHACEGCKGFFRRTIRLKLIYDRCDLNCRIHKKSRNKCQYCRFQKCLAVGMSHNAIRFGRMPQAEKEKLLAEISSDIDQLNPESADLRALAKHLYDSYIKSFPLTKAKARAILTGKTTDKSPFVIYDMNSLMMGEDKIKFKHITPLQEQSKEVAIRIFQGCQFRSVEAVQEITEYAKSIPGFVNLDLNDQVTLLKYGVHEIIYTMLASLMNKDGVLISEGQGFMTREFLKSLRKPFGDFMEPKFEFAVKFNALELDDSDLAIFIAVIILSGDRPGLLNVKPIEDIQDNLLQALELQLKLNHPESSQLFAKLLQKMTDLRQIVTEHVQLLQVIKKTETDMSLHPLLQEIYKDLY
Sequence of Peroxisome proliferator-activated receptor gamma/Nuclear receptor coactivator 3 (Q9Y6Q9 whole entry, further chain): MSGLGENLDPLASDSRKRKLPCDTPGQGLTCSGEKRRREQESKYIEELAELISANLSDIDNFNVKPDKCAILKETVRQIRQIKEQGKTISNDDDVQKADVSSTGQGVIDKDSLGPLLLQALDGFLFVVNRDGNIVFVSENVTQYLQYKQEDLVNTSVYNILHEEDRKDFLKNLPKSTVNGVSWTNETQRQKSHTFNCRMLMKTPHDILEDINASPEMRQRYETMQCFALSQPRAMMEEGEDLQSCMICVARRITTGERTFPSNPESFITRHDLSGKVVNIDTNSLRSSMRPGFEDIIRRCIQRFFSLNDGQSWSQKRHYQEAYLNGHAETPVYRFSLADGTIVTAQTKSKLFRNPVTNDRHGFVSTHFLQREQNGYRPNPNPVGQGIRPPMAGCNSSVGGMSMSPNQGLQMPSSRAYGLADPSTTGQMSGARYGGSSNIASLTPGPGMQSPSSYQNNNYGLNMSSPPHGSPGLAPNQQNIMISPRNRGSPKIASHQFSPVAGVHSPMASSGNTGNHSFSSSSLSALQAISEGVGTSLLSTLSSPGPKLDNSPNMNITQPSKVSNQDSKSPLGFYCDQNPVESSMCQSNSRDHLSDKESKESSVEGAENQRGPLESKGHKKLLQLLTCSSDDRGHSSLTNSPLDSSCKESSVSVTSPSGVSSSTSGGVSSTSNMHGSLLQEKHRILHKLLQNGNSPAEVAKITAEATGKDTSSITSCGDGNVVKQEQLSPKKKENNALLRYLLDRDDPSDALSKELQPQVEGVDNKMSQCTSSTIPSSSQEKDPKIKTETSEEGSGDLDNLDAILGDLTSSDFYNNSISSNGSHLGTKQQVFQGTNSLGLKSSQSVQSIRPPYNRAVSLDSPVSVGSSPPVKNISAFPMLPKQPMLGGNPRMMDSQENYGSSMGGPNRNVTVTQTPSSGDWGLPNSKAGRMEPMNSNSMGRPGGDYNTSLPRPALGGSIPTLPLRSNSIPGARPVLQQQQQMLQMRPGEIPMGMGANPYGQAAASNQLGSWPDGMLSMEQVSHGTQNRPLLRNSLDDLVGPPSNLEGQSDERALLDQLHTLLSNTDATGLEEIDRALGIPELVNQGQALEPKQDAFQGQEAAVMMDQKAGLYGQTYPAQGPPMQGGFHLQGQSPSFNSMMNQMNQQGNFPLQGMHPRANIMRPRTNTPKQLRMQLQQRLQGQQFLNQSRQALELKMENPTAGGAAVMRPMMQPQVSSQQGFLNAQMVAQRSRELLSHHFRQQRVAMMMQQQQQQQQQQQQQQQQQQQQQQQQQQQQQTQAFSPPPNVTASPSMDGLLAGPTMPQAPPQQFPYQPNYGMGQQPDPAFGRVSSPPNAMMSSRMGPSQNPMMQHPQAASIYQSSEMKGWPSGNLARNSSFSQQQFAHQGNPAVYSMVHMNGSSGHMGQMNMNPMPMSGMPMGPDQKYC
In experiment [26] the target is Mitogen-activated protein kinase 10 (Homo sapiens, UniProt P53779). Kind of experiment: Dose response biochemical screening assay for inhibitors of c-Jun N-Terminal Kinase 3 (JNK3). [Related pubchem assays: 746 ].
Sequence of Mitogen-activated protein kinase 10 (P53779 whole entry): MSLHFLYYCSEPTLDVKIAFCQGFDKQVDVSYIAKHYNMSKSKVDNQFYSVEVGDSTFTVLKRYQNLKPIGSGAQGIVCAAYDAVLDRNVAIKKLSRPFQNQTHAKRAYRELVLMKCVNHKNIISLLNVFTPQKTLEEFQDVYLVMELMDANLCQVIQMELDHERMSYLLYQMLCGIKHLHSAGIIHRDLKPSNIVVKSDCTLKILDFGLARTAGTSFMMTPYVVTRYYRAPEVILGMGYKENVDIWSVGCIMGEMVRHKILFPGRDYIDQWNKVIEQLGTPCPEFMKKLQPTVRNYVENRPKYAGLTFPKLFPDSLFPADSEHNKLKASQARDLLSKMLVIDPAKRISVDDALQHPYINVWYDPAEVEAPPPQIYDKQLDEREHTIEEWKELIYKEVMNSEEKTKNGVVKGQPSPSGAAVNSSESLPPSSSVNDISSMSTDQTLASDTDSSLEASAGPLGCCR
In experiment [27] the target is T4, Sphingosine 1-phosphate receptor 2. In words: Dose Response Cell Based Assay for Antagonists of the S1P2 Receptor. [Related pubchem assays: 856, 736 ]. The class given is functional.

This note sets out measurements from ChEMBL document CHEMBL1201862, “PubChem BioAssay data set” (2004).

By IC50 is commonly meant the midpoint of a concentration-inhibition curve. By AC50 is commonly meant the concentration giving half of the maximal activity seen. For orientation: EC50 means the concentration giving half of the maximal effect.

“And” between values parts separate entries of the source, which are not always exact repeats. Equal values may be shown once. The source made the active and inactive calls.

For the compound `CCOC(=O)CS(=O)(=O)c1nc(-c2ccccc2)cc(C(F)(F)F)n1`, the IC50 on Bcl-2-related protein A1 [1] was 3.72 µM (active); in experiment [2], > 100 µM (not active); at Bcl-2-related protein A1 [3], 4.63 µM (active) and 1.18 µM (active); at Bcl-2-related protein A1 [4], 5.36 µM (active); in the experiment on CHO, 4.43 µM (active); at Beta Lactamase, 19.2 µM (inactive). In addition, the AC50 was 2.77 µM (active) in experiment [5]; 2.9 µM (active) in experiment [6]; 7.22 µM (active) with INS1; 3.42 µM (active) in experiment [7]; 12.9 µM (active) in experiment [8]; 6.93 µM (active) in experiment [9]. The AC50 in [10] is 6.64 µM (active). Besides, the EC50 on Protein RecA was 4.15 µM (active).
In the case of `Cc1ccc(-c2ccc(S(=O)(=O)NCC3CCCO3)cc2)cc1` (stereo unspecified), the IC50 in [11] is 7.7 µM (active).
On to `Cc1cccc(C(=O)NC2CC3CCCC(C2)N3C(=O)NC2CCCCC2)c1` (stereo unspecified), for which the half-maximal effective concentration (EC50) in experiment [12] is > 50 µM (not active).
On to `CCOc1cc(/C=N\NC(=O)Cn2nc([N+](=O)[O-])cc2C)ccc1OCc1cccc2ccccc12`, for which, in [13], the concentration for half-maximal inhibition (IC50) is > 100 µM (active). Also, in [14], the CC50 was > 40 µM (active).
For the compound `CN(C)c1ccc(NC(=O)Nc2ccc(OCc3ccccc3)cc2)cc1`, the concentration for half-maximal inhibition (IC50) on NADPH oxidase 1 [15] is 2.37 µM (active); at NADPH oxidase 1 [16] it was 0.23 µM (active).
Consider `CN(C)C(=S)SSC(=S)N(C)C` [THIRAM], for which the IC50 is 0.223 µM (active) in experiment [17], 89.3 µM (active) in experiment [19], > 33.3 µM (inactive) in experiment [21] and > 40 µM (inactive) in [22]. Further, the EC50 in [18] is 0.18 µM (active). For the same compound, the AC50 in [20] is 7.74 µM (active).
For the compound `Cn1c(C(=O)NCc2ccco2)cc2c(=O)[nH]c3ccccc3c21`, the concentration for a half-maximal effect (EC50) in [23], in experiment [24] and in experiment [25] was > 79.4 µM (not active) in each case. For the same compound, the IC50 in experiment [26] is on record as 31.4 µM (not active).
As to `Cc1nc(-c2cccs2)sc1C(=O)Nc1ccc(F)cc1`, the IC50 in experiment [27] was > 30 µM (not active).
